Paper PMC11200585, “Prospects for Prostate Cancer Chemotherapy: Cytotoxic Evaluation and Mechanistic Insights of Quinolinequinones with ADME/PK Profile” (Biomedicines, 2024)

Key:
Format in all cases: cell-based, human
COLO 205 = experiment: NCI-60 five-dose assay (colon cancer); conditions: 48 h, SRB
NCI-H226 [1] = experiment: NCI-60 five-dose assay (non-small cell lung cancer); conditions: 48 h, SRB
EKVX [2] = experiment: as above; conditions: 48 h, SRB
MCF7 = experiment: NCI-60 five-dose assay (breast cancer); conditions: 48 h, SRB
NCI-H322M [3] = experiment: NCI-60 five-dose assay (non-small cell lung cancer); conditions: 48 h, SRB
A549/ATCC [4] = experiment: as above; conditions: 48 h, SRB
K-562 [5] = experiment: NCI-60 five-dose assay (leukemia); conditions: Homo sapiens, K562, 48 h, SRB
M14 = experiment: NCI-60 five-dose assay (melanoma); conditions: 48 h, SRB
MDA-MB-435 = experiment: NCI-60 five-dose assay (melanoma); conditions: 48 h, SRB
NCI-H23 [6] = experiment: NCI-60 five-dose assay (non-small cell lung cancer); conditions: 48 h, SRB
SF-295 = experiment: NCI-60 one-dose screen (CNS cancer); conditions: 10 µM single dose, 48 h
Procedure: (§1) The obtained quinolinequinones were submitted to NCI, Bethesda, USA, and, as per standard protocol of NCI, all compounds were evaluated for their antiproliferative activity at single-dose assay (10 µM concentration in DMSO) on a panel of 60 cancer cell lines derived from leukemia, non-small-cell lung, colon, CNS, melanoma, ovarian, renal, prostate, and breast, as per protocol. Tested compounds were added to the microtiter culture plates followed by incubation for 48 h at 37 °C. Sulforhodamine B (SRB), a protein-binding dye, is used for endpoint determination. The percent of the growth of the treated cells was determined in comparison to the untreated control cells and the results of each tested compound were reported. Data from one-dose experiments pertain to the percentage growth at 10 μM [16, 17, 18].

SF-268 = experiment: NCI-60 one-dose screen (CNS cancer); conditions: 10 µM single dose, 48 h
Procedure: as §1

SNB-75 = experiment: NCI-60 one-dose screen (CNS cancer); conditions: 10 µM single dose, 48 h
Procedure: as §1

U251 = experiment: NCI-60 one-dose screen (CNS cancer); conditions: 10 µM single dose, 48 h
Procedure: as §1

SNB-19 = experiment: NCI-60 one-dose screen (CNS cancer); conditions: 10 µM single dose, 48 h
Procedure: as §1

SF-539 = experiment: NCI-60 one-dose screen (CNS cancer); conditions: 10 µM single dose, 48 h
Procedure: as §1

CCRF-CEM [7] = experiment: NCI-60 five-dose assay (leukemia); conditions: 48 h, SRB
SN12C = experiment: NCI-60 five-dose assay (renal cancer); conditions: 48 h, SRB
UACC-62 = experiment: NCI-60 five-dose assay (melanoma); conditions: 48 h, SRB
NCI-H522 = experiment: NCI-60 one-dose screen (non-small cell lung cancer); conditions: 10 µM single dose, 48 h
Procedure: as §1

HOP-62 = experiment: as above; conditions: 10 µM single dose, 48 h
Procedure: as §1

NCI-H23 [8] = experiment: as above; conditions: 10 µM single dose, 48 h
Procedure: as §1

NCI-H322M [9] = experiment: as above; conditions: 10 µM single dose
Procedure: as §1

NCI-H226 [10] = experiment: as above; conditions: 10 µM single dose
Procedure: as §1

A549/ATCC [11] = experiment: as above; conditions: 10 µM single dose, 48 h
Procedure: as §1

NCI-H460 = experiment: as above; conditions: 10 µM single dose
Procedure: as §1

HOP-92 = experiment: as above; conditions: 10 µM single dose, 48 h
Procedure: as §1

EKVX [12] = experiment: as above; conditions: 10 µM single dose, 48 h
Procedure: as §1

HCT-116 = experiment: NCI-60 one-dose screen (colon cancer); conditions: 10 µM single dose, 48 h
T-47D = experiment: NCI-60 five-dose assay (breast cancer); conditions: 48 h, SRB
CCRF-CEM [13] = experiment: NCI-60 one-dose screen (leukemia); conditions: 10 µM single dose, 48 h
Procedure: as §1

RPMI-8226 = experiment: NCI-60 one-dose screen (leukemia); conditions: 10 µM single dose, 48 h
Procedure: as §1

K-562 [14] = experiment: NCI-60 one-dose screen (leukemia)
Procedure: as §1

MOLT-4 = experiment: NCI-60 one-dose screen (leukemia); conditions: 10 µM single dose, 48 h
Procedure: as §1

HL-60(TB) [15] = experiment: NCI-60 one-dose screen (leukemia); conditions: 10 µM single dose, 48 h
Procedure: as §1

SR = experiment: NCI-60 one-dose screen (leukemia); conditions: 10 µM single dose, 48 h
Procedure: as §1

SK-MEL-28 = experiment: NCI-60 five-dose assay (melanoma); conditions: 48 h, SRB
HL-60(TB) [16] = experiment: NCI-60 five-dose assay (leukemia); conditions: 48 h, SRB
DU-145 = experiment: NCI-60 five-dose assay (prostate cancer); conditions: 48 h, SRB
[17] = Homo sapiens, read-out: LC50 (the source's name)

Structure (SMILES): CCOc1ccccc1NC1=C(Cl)C(=O)c2nc(C)ccc2C1=O [AQQ2]
- TGI (COLO 205): 3.66 µM
- GI50 (COLO 205; Homo sapiens): 1.73 µM
- CC50 (COLO 205; [17]): 7.74 µM
- TGI (NCI-H226 [1]): 4.24 µM
- GI50 (NCI-H226 [1]; Homo sapiens): 1.78 µM
- LC50 (NCI-H226 [1]; Homo sapiens): 16.2 µM
- TGI (EKVX [2]): 2.98 µM
- GI50 (EKVX [2]; Homo sapiens): 1.56 µM
- CC50 (EKVX [2]; [17]): 5.7 µM
- TGI (MCF7): 3.65 µM
- GI50 (MCF7; Homo sapiens): 1.33 µM
- TGI (NCI-H322M [3]): 7.91 µM
- GI50 (NCI-H322M [3]; Homo sapiens): 2.22 µM
- CC50 (NCI-H322M [3]; [17]): 29.7 µM
- TGI (A549/ATCC [4]): 4.64 µM
- GI50 (A549/ATCC [4]; Homo sapiens): 2.06 µM
- CC50 (A549/ATCC [4]; [17]): 12.9 µM
- GI50 (K-562 [5]): 0.341 µM
- LC50 (K-562 [5]): > 100 µM
- TGI (M14): 2.83 µM
- GI50 (M14; Homo sapiens): 1.46 µM
- LC50 (M14; Homo sapiens): 5.5 µM
- TGI (MDA-MB-435): 0.671 µM
- GI50 (MDA-MB-435; Homo sapiens): 0.266 µM
- CC50 (MDA-MB-435; [17]): 2.45 µM
- TGI (NCI-H23 [6]): 3.55 µM
- GI50 (NCI-H23 [6]; Homo sapiens): 1.44 µM
- CC50 (NCI-H23 [6]; [17]): 8.71 µM
- GP (growth percentage) (SF-295): 90.72%
- GP (growth percentage) (SF-268): 32.75%
- GP (growth percentage) (SNB-75): 101.38%
- GP (growth percentage) (U251): 37.89%
- GP (growth percentage) (SNB-19): 46.47%
- GP (growth percentage) (SF-539): −37.33%
- TGI (CCRF-CEM [7]): >100 µM
- GI50 (CCRF-CEM [7]; Homo sapiens): 1.41 µM
- LC50 (concentration killing 50% of cells) (CCRF-CEM [7]; Homo sapiens): > 100 µM
- TGI (SN12C): 3.04 µM
- GI50 (SN12C; Homo sapiens): 1.59 µM
- LC50 (concentration killing 50% of starting cells) (SN12C; Homo sapiens): 5.8 µM
- TGI (UACC-62): 3.36 µM
- GI50 (UACC-62; Homo sapiens): 1.8 µM
- LC50 (concentration killing 50% of cells) (UACC-62; Homo sapiens): 6.28 µM
- GP (growth percentage) (NCI-H522): −43.48%
- GP (growth percentage) (HOP-62): 84.25%
- GP (growth percentage) (NCI-H23 [8]): −67.81%
- GP (growth percentage) (NCI-H322M [9]; 48 h): 28.84%
- inhibition at 10 µM (NCI-H322M [9]; Homo sapiens): 71.2%
- GP (growth percentage) (NCI-H226 [10]; 48 h): 17.62%
- inhibition at 10 µM (NCI-H226 [10]; Homo sapiens): 82.4%
- GP (growth percentage) (A549/ATCC [11]): 59.11%
- GP (growth percentage) (NCI-H460; 48 h): 12.07%
- inhibition at 10 µM (NCI-H460; Homo sapiens): 87.9%
- GP (growth percentage) (HOP-92): −89.25%
- GP (growth percentage) (EKVX [12]): −2.24%
- GP (growth percentage) (HCT-116): −79.44%
- TGI (T-47D): 3.17 µM
- GI50 (T-47D; Homo sapiens, T47D): 0.467 µM
- CC50 (T-47D; Homo sapiens, T47D, read-out: LC50 (the source's name)): > 100 µM
- GP (growth percentage) (CCRF-CEM [13]): −6.33%
- GP (growth percentage) (RPMI-8226): −35.12%
- GP (growth percentage) (K-562 [14]; 10 µM single dose, 48 h): 1.26%
- inhibition at 10 µM (K-562 [14]; Homo sapiens, K562, 10 µM single dose): 98.7%
- GP (growth percentage) (MOLT-4): −24.89%
- GP (growth percentage) (HL-60(TB) [15]): −36.75%
- GP (growth percentage) (SR): −12.75%
- TGI (SK-MEL-28): 3.14 µM
- GI50 (SK-MEL-28; Homo sapiens): 1.71 µM
- LC50 (SK-MEL-28; Homo sapiens): 5.79 µM
- TGI (HL-60(TB) [16]): 2.92 µM
- GI50 (HL-60(TB) [16]; Homo sapiens): 1.03 µM
- CC50 (HL-60(TB) [16]; [17]): 8.29 µM
- TGI (DU-145): 2.99 µM
- GI50 (DU-145; Homo sapiens): 1.63 µM
- CC50 (DU-145; [17]): 5.49 µM
